Series [1] is described as follows: fluorescence analysis of structure after photon irradiation. It counts as physicochemical. Particulars: 3 mg irradiated by 50 MV photons, 30 Gy. On the procedure:
(§1) The details of the procedure of the present example are as follow: 3 mg of adriamycin is irradiated by 50 MV of photons with a dosage of 30 Gy (gray). […] A ^12C atom of the adriamycin molecule is converted into a ^11C positron nuclide and an ^16O atom therein is converted into a ^15O positron nuclide.

The test system of series [2] is SD rats. The experiment in a line: distribution after tail vein injection of 11C/15O-labeled adriamycin. It counts as in vivo, rat. Particulars: labeled with 11C and 15O. On the procedure:
as §1

Series [3] concerns porphyrin synthesis. To be noted: in vivo. The text has this: Example 4 relates to a study of imaging of porphyrin synthesis in-vivo.
Porphyrin plays an important role in an organism. It is important for the study of physiological conditions, biochemical condition, and diseases to know the porphyrin synthesis in vivo. 5-ALA is a precursor of the porphyrin synthesis. After it is irradiated by photons of 50 MV with a dosage of 30 Gy (gray), a ^12C atom of the 5-ALA molecule is converted into an ^11C positron nuclide and a ^16O atom therein is converted into an ^15O positron nuclide.

With `COc1cccc2c1C(=O)c1c(O)c3c(c(O)c1C2=O)C[C@@](O)(C(=O)CO)C[C@@H]3O[C@H]1C[C@H](N)[C@H](O)[C@H](C)O1` [adriamycin], in series [1], the “structure after the irradiation (fluorescence analysis)” value is listed as “no change in the structure”. Moreover, in series [2], the “site of accumulation in vivo” value is on record as “accumulates at the heart”.

Regarding `NCC(=O)CCC(=O)O` [5-ALA], the “main organ of porphyrin synthesis” value in series [3] is reported as “liver is the main organ of porphyrin synthesis”.

The values are drawn from patent publication US8709381B2, “Compound containing a carbon or an oxygen isotope, preparation and use thereof, and composition comprising thereof” (Beijing Top Grade Medical Equipment Co., Ltd, priority 2010, dated 2014).
